Like-named read-outs stand apart in the source and are kept apart here.
Columns and labels:
E. coli K12 BW25113 [1] = conditions: for increase of bactericidal effect, serum plus glycine versus serum: 100 μL human serum plus 100 mM glycine
Method: (§1) Sample preparation: Single colonies of the parent strain E. coli K12 BW25113 are picked from Luria-Bertani (LB) agar plate, inoculated into 5 mL LB medium and incubated with shaking at 200 rpm, 37° C. for 16 hours. Cultures are then diluted 1:100 (v/v) in 200 mL fresh LB medium and grow to an OD600 of 1.0 at 37° C. with shaking. Cells are collected by centrifugation at 8000 rpm for 10 minutes at 4° C. and washed with 0.85% saline once.
To understand whether glycine enhances the bactericidal effect of serum, experiments are carried out in 3 scenarios: the same volume of human serum mixed with different concentrations of glycine, different volumes of human serum mixed with the same concentration of glycine, and these mixtures are treated for different incubation periods.
Bacterial cells are prepared according to Example 1.1. Glycine is added to a final concentration of 0, 5, 10, 30, 50 and 100 mM and the mixtures are cultured for 1 hour at 37° C. with shaking at 200 rpm. Then 100 μL of human serum or saline are added as test and control groups, respectively. Bacteria are cultured for 2 hours and collected by centrifugation. Cells are resuspended with 1 mL of saline. Live bacterial cells are counted on LB agar plate. Survival rate is calculated as follows: number of live bacteria cells after treatment with different concentrations of glycine supplementation/number of live bacteria cells after treatment with saline×100%.
Bacterial samples are prepared and added with 100 mM glycine and cultured for 1 hour at 37° C. with shaking at 200 rpm. Then 0, 20, 40, 60, 80 or 100 μL human serum is added and cultured for 2 hours at 37° C. with shaking at 200 rpm. The controls are not mixed with glycine but only with different volumes of human serum. Bacteria are collected by centrifugation and resuspended with 1 mL of saline for spot-plate counting. The survival rate is calculated as follows: the number of live bacteria cells after treatment with glycine plus different volumes of human serum/the number of live cells after treatment with only human serum×100%.
The prepared bacterial samples are divided into 4 groups and treated separately as follows: with 100 mM glycine, 100 μL human serum, 100 μL human serum plus 100 mM glycine or saline alone as control. The mixtures are cultured for 0.5, 1, 2, 3, and 4 hours at 37° C. with shaking at 200 rpm. Bacteria are collected by centrifugation and resuspended in 1 mL saline. Bacteria are counted using LB agar plates. The survival rate is calculated as follows: the number of live bacteria after treatment with serum and/or glycine in different times/the number of live bacteria in the saline control group×100%.

[2] = system: E. coli K12 BW25113, E. coli clinical strain Y17, beta-hemolytic Streptococcus, Vibro alginolyticus, Vibro parahaemolyticus, Pseudomonas aeruginosa and …; conditions: 125-175 μL human serum plus 100-150 mM glycine, 4 hours
Method: as §1

[3] = system: E. coli K12 BW25113, E. coli clinical strain Y17, Vibro alginolyticus, Vibro parahaemolyticus, Pseudomonas aeruginosa and Staphylococcus aureus; conditions: 100 μL serum/plasma of different animals plus 100 mM glycine, 4 hour
Method: as §1
A variety of bacteria (E. coli K12 BW25113, E. coli clinical strain Y17, Vibro alginolyticus, Vibro parahaemolyticus, Pseudomonas aeruginosa and Staphylococcus aureus) are cultured as described in Example 1.1. Aliquots of 3 mL bacteria are collected with OD600 of 1.0. Then, 100 μL serum/plasma from different animals or 100 μL serum/plasma of different animals plus 100 mM glycine are added and 100 mM glycine alone is used a control. Cells are cultured for 4 hour at 37° C. with shaking at 200 rpm. Bacteria are resuspended with 1 mL of saline. Absorbance is measured at 600 nm.

E. coli K12 BW25113 [4] = conditions: mice, 6 times, blood at 48 hours
Method: (§2) A total of 15 6-week-old mice (purchased from the Laboratory Animals Center of Sun Yat-sen University) are randomly divided into three groups: saline control group and two treatment groups are administered with 3.25 or 6.5 mg glycine/mouse. The compound is intravenously administered at 3.25 or 6.5 mg glycine/injection/mouse every 12 hours and 6 times in total. Mice are intravenously injected 1×10^6 E. coli K12 BW25113 or E. coli clinical isolate Y17 at 12 hours after the last administration of glycine. Blood is withdrawn from mouse tail vein at 48 hours. The clearance of bacteria is determined by plate counting.

[5] = system: E. coli clinical isolate Y17; conditions: mice, 6 times, blood at 48 hours
Method: as §2

E. coli = assay: Human serum bactericidal assay with threonine, OD600 survival rate; type: cell-based, Escherichia coli; conditions: 2 hours
Method: The prepared bacterial cells are divided to four groups. […] Absorbance is measured at 600 nm Survival rate is calculated as follows: the OD in groups after treatment with serum, threonine or serum plus threonine/the OD in the control group treated with saline×100%. […] Certain bactericidal effect is detected in the group with serum alone. Compared with the group with serum alone, the group with serum plus threonine has a significant 1.5-fold increase of bactericidal effect.

[6] = 3.25 mg glycine/injection i.v. every 12 hours
[7] = 6.5 mg glycine/injection i.v. every 12 hours

NCC(=O)O [glycine]
increase of the serum bactericidal effect (E. coli K12 BW25113 [1]; 5 mM glycine, 1 h preincubation, then 100 μL human serum for 2 hours, 37° C.): 1.36 fold | elevation of serum bactericidal effect, serum volume series (E. coli K12 BW25113 [1]; 100 mM glycine plus 100 μL human serum, 2 hours, versus human serum only): 86 fold | bactericidal effect of glycine alone (E. coli K12 BW25113 [1]; 100 mM glycine without serum, 0.5 to 4 hours): no bactericidal effect | increase of the serum bactericidal effect (highest effect) (E. coli K12 BW25113 [1]; 100 mM glycine, 1 h preincubation, then 100 μL human serum for 2 hours, 37° C.): ~86 fold | increase of bactericidal effect, serum plus glycine versus serum (E. coli K12 BW25113 [1]; after 0.5 hours): 2 fold | increase of bactericidal effect, serum plus glycine versus serum (E. coli K12 BW25113 [1]; after 1 hour): 77 fold | increase of bactericidal effect, serum plus glycine versus serum (E. coli K12 BW25113 [1]; after 4 hours): 120 fold | increase of serum bactericidal effect, lower bound over all bacteria tested [2]: more than 1 fold | increase of serum bactericidal effect, maximum over all bacteria tested [2]: up to 4.13 fold | increase of bactericidal effect of animal serum/plasma, maximum [3]: ~10 fold | increase of bactericidal effect of animal serum/plasma, minimum [3]: ≥ 1.5 fold | Clearance rate (E. coli K12 BW25113 [4]; [6]): 89.32% | Clearance rate (E. coli K12 BW25113 [4]; [7]): 96.85% | Clearance rate [5, 6]: 32.95% | Clearance rate [5, 7]: 52.53%

C[C@@H](O)[C@H](N)C(=O)O [threonine]
bactericidal effect of threonine alone (E. coli; 100 mM threonine without serum): no bactericidal effect | increase of bactericidal effect, serum plus threonine versus serum alone (E. coli; 100 μL human serum plus 100 mM threonine): 1.5 fold

Source: US10792263B2, “Method of treating an individual having a microbial infection” (Sun Yat-sen University, priority 2012, dated 2020)
